In patent US20250195502A1, “APPLICATION OF TETRACYCLIC COMPOUND IN TREATMENT OF TUMORS” (SHANGHAI SHIJIANG BIOTECHNOLOGY CO., LTD, priority 2022, published 2025):
Read-outs that look alike come from different tables or passages of the source.

How the values were obtained:
Type in all cases: cell-based
[1] = system: NCI-H82 (human small cell lung cancer cell); assay: Cell viability assay (Promega CellTiter-Glo), inhibitory effect on NCI-H82; details: 72 h, 3 days of culture
Description: (§1) The inhibitory effect of the compounds prepared in the Examples of the present invention on various tumor cell lines was detected using cell viability assay reagent.
(§2) Cell viability was detected using the Promega CellTiter-Glo kit, cell viability was determined by directly measuring intracellular ATP content. In the experiment, the ICso value of the compounds prepared in the Examples of the present invention on various tumor cell lines was detected.
(§3) Each tumor cell was cultured in relevant medium. After cell passage, the gradient diluted compounds prepared in the Examples of the present invention was added. After 3 days of culture, the relevant IC50 (50% inhibiting concentration) was measured. The name, source and culture conditions of each tumor cell line were as follows:
Cell line NCI-H82 (ATCC, No. HTB-175) was cultured in 10% fetal bovine serum-containing RPMI1640 medium (+P/S).

[2] = system: SW48 (human colon adenocarcinoma cell); assay: Cell viability assay (Promega CellTiter-Glo), inhibitory effect on SW48; details: 72 h, 3 days of culture
Description: as §1, §2, §3
Cell line SW48 (ATCC, No. CCL-231) was cultured in 10% fetal bovine serum-containing Leibovitz's L-15 medium (+P/S).

[3] = system: G-401 (human renal carcinoma Wilms cell); assay: Cell viability assay (Promega CellTiter-Glo), inhibitory effect on G-401; details: 72 h, 3 days of culture
Description: as §1, §2, §3
Cell line G-401 (ATCC, No. CRL-1441) was cultured in 10% fetal bovine serum-containing McCoy's 5a medium (+P/S).

[4] = system: MDA-MB-453 (breast cancer cell); assay: Cell viability assay (Promega CellTiter-Glo), inhibitory effect on MDA-MB-453; details: Homo sapiens, 72 h, 3 days of culture
Description: as §1, §2, §3
Cell line MDA-MB-453 (ATCC, No. HTB-131) was cultured in 10% fetal bovine serum-containing Leibovitz's L-15 medium (+P/S).

[5] = system: CFPAC-1 (human pancreatic cancer cell); assay: Cell viability assay (Promega CellTiter-Glo), inhibitory effect on CFPAC-1; details: 72 h, 3 days of culture
Description: as §1, §2, §3
Cell line CFPAC-1 (ATCC, No. CRL-1918) was cultured in 10% fetal bovine serum-containing IMDM medium (+P/S).

[6] = system: 786-O (clear cell renal cell adenocarcinoma cell); assay: Cell viability assay (Promega CellTiter-Glo), inhibitory effect on 786-O; details: Homo sapiens, 786-0, 72 h, 3 days of culture
Description: as §1, §2, §3
Cell line 786-0 (ATCC, No. CRL-1932) was cultured in 10% fetal bovine serum-containing RPMI1640 medium (+P/S).

[7] = system: SF126 (human glioblastoma multiforme cell); assay: Cell viability assay (Promega CellTiter-Glo), inhibitory effect on SF126
Description: as §1, §2, §3
Cell line SF126 (JCRB, No. IFO50286) was cultured in 10% fetal bovine serum-containing EMEM medium (+P/S).
(§4) The inhibitory effect of the compounds prepared in the Examples of the present invention on various brain tumor cell lines was detected using cell viability assay reagent.
(§5) Cell viability was detected using the Promega CellTiter-Glo kit, cell viability was determined by directly measuring intracellular ATP content. In the experiment, the IC50 value of the compounds prepared in the Examples of the present invention on various brain tumor cell lines was detected.

[8] = system: GB-1 (human brain glioblastoma cell); assay: Cell viability assay (Promega CellTiter-Glo), inhibitory effect on GB-1; details: 72 h, 3 days of culture
Description: as §1, §2, §3
Cell line GB-1 (JCRB, No. IFO50489) was cultured in 10% fetal bovine serum-containing DMEM medium (+P/S).
as §4, §5

[9] = system: Kelly (brain neuroblastoma cell); assay: Cell viability assay (Promega CellTiter-Glo), inhibitory effect on Kelly; details: Homo sapiens, 72 h, 3 days of culture, read-out: inhibitory effect on brain cell line Kelly (IC50)
Description: as §4, §5, §3
Cell line Kelly (ECACC, No. 92110411) was cultured in 10% fetal bovine serum and 2 mM glutamine-containing RPMI1640 medium.

[10] = system: NB-1 (brain neuroblastoma cell); assay: Cell viability assay (Promega CellTiter-Glo), inhibitory effect on NB-1; details: Homo sapiens, 72 h, 3 days of culture, read-out: inhibitory effect on brain cell line NB-1 (IC50)
Description: as §4, §5, §3
Cell line NB-1 (ATCC, No. HTB-131) was cultured in 10% fetal bovine serum-containing Leibovitz's L-15 medium (+P/S).

[11] = system: D341 Med (cerebellar medulloblastoma cell); assay: Cell viability assay (Promega CellTiter-Glo), inhibitory effect on D341 Med; details: Homo sapiens, 72 h, 3 days of culture, read-out: inhibitory effect on brain cell line D341 Med (IC50)
Description: as §4, §5, §3
Cell line D341 Med (ATCC, No. HTB-187) was cultured in 20% fetal bovine serum-containing EMEM medium (+P/S).

[12] = system: Con-NCI-H82 cell (NCI-H82 transfected with empty virus vector); assay: Cell viability assay (Promega CellTiter-Glo), inhibitory effect on Con-NCI-H82 cell; details: Homo sapiens
Description: (§6) The role of expression level of NNMT gene and DNMT1 in the sensitivity of NCI-H82 cell to the compounds prepared in the Examples of the present invention was determined
(§7) The expression of NNMT protein in NCI-H82 cell was overexpressed by inserting the NNMT gene into NCI-H82 cell using a viral vector, and the NNMT protein-overexpressing NCI-H82 cell (ov-NNMT NCI-H82 cell) was obtained. The expression of DNMT1 in NCI-H82 cell was knocked down transfecting (the by shRNA nucleotide sequence of shRNA was […] TTTTTG (SEQ ID No: 2)) using a viral vector, and the NCI-H82 cell with low expression of DNMT1 protein (sh-DNMT1 NCI-H82 cell) was obtained. The control NCI-H82 cell (Con-NCI-H82 cell) was obtained by transfecting NCI-H82 cell with empty virus vector without carrying NNMT gene and shRNA. The expressing content of NNMT protein and DNMT1 protein in the Con-NCI-H82 cell, the expressing content of NNMT protein in the ov-NNMT NCI-H82 cell, and the expressing content of DNMT1 protein in the sh-DNMT1 NCI-H82 cell were detected using Western Blot assay (as shown in FIG. 15 and FIG. 16), it could be seen from FIG. 15 and FIG. 16 that the NNMT protein was overexpressed in the ov-NNMT NCI-H82 cell and the expression of DNMT1 protein was knocked down (i.e, low expression) in the sh-DNMT1 NCI-H82 cell compared with the expression level of NNMT protein and DNMT protein in the Con-NCI-H82 cell.

[13] = system: ov-NNMT NCI-H82 cell (NNMT protein-overexpressing NCI-H82); assay: Cell viability assay (Promega CellTiter-Glo), inhibitory effect on ov-NNMT NCI-H82 cell; details: Homo sapiens
Description: as §6, §7

[14] = system: sh-DNMT1 NCI-H82 cell (DNMT1 knocked down NCI-H82); assay: Cell viability assay (Promega CellTiter-Glo), inhibitory effect on sh-DNMT1 NCI-H82 cell; details: Homo sapiens, NCI-H82 with DNMT1 knocked down by shRNA
Description: as §6, §7

[15] = 72 h, SF-126, 3 days of culture, Table 3, read-out: inhibitory effect on SF-126 (IC50)
[16] = Table 3, read-out: inhibitory effect on GB-1 (IC50)
[17] = NCI-H82 transfected with empty virus vector (control), CellTiter-Glo, read-out: inhibitory effect on Con-NCI-H82 (IC50)
[18] = NCI-H82, read-out: inhibitory effect on Con-NCI-H82 (IC50)

IC50 [12, 17]	IC50 [13]	IC50 [14]	SMILES	other results
1480 nM	3150 nM	4640 nM	CCc1c2c(OC)c(OC)ccc2cc2[n+]1CCc1cc3c(cc1-2)OCO3 [compound AB31706]	IC50 [1]: 1480 nM; IC50 [2]: 1240 nM; IC50 [3]: 1120 nM; IC50 [4]: 620 nM; IC50 [5]: 21900 nM; IC50 [6]: 16600 nM; IC50 [7, 15]: 6490 nM; IC50 ([7]; SF-126, 72 h, SF126, 3 days of culture, Table 4, read-out: inhibitory effect on brain cell line SF126 (IC50)): 6490 nM; IC50 [8, 16]: 12900 nM; IC50 ([8]; Table 4, read-out: inhibitory effect on brain cell line GB-1 (IC50)): 12900 nM; IC50 [9]: 1510 nM; IC50 [10]: 300 nM; IC50 [11]: 1180 nM
70 nM	380 nM	350 nM	CCCCCCCCCCOc1c(OC)ccc2cc3[n+](cc12)CCc1cc2c(cc1-3)OCO2 [compound AB31716]	–
110 nM	250 nM	360 nM	CCCCCCCCCCCCOc1c(OC)ccc2cc3[n+](cc12)CCc1cc2c(cc1-3)OCO2 [compound AB31717]	–
3940 nM	8280 nM	8080 nM	CCCCC(=O)Oc1c(OC)ccc2cc3[n+](cc12)CCc1cc2c(cc1-3)OCO2 [compound AB31723]	IC50 [1]: 3940 nM; IC50 [2]: 2560 nM; IC50 [3]: 5310 nM; IC50 [4]: 3450 nM; IC50 [5]: 22600 nM; IC50 [6]: 21500 nM; IC50 [7, 15]: 19300 nM; IC50 [8, 16]: > 50000 nM
2360 nM	4820 nM	7680 nM	CCc1c2[n+](cc3c(OC)c(OC)ccc13)CCc1cc3c(cc1-2)OCO3 [compound AB31755]	–
1010 nM	2380 nM	4360 nM	CCCc1c2[n+](cc3c(OC)c(OC)ccc13)CCc1cc3c(cc1-2)OCO3 [compound AB31756]	–
270 nM	740 nM	980 nM	CCCCCCCCc1c2[n+](cc3c(OC)c(OC)ccc13)CCc1cc3c(cc1-2)OCO3 [compound AB31761]	–
130 nM	320 nM	490 nM	CCCCCCCCCCc1c2[n+](cc3c(OC)c(OC)ccc13)CCc1cc3c(cc1-2)OCO3 [compound AB31762]	–
80 nM	310 nM	420 nM	CCCCCCCCCCCCc1c2[n+](cc3c(OC)c(OC)ccc13)CCc1cc3c(cc1-2)OCO3 [compound AB31763]	–
2470 nM	4950 nM	4840 nM	CCCCCCCCCCCC(=O)Oc1c(OC)ccc2cc3[n+](cc12)CCc1cc2c(cc1-3)OCO2 [compound AB31766]	IC50 [1]: 2470 nM; IC50 [2]: 1210 nM; IC50 [3]: 2890 nM; IC50 [4]: 1250 nM; IC50 [5]: 15200 nM; IC50 [6]: 13000 nM; IC50 [7, 15]: 12900 nM; IC50 [8, 16]: 9120 nM
240 nM	680 nM	880 nM	CCCCCCCCCCCCc1c2[n+](cc3c(OCCCCCCCCCC)c(OC)ccc13)CCc1cc3c(cc1-2)OCO3 [compound AB31795]	–
270 nM	640 nM	760 nM	CCCCCCCCCCCCc1c2[n+](cc3c(OCCCCCCCC)c(OC)ccc13)CCc1cc3c(cc1-2)OCO3 [compound AB31796]	–
120 nM	540 nM	480 nM	CCCCCCCCCCCCc1c2[n+](cc3c(OCCCCCC)c(OC)ccc13)CCc1cc3c(cc1-2)OCO3 [compound AB31797]	–
220 nM	650 nM	580 nM	CCCCCCCCCCCCCCc1c2[n+](cc3c(OC)c(OC)ccc13)CCc1cc3c(cc1-2)OCO3 [compound AB31800]	–
3120 nM	7340 nM	12400 nM	COc1ccc2cc3[n+](cc2c1OC)CCc1cc2c(cc1-3)OCCO2 [compound AB31811]	–
610 nM	1380 nM	2560 nM	CCCOc1c(OC)ccc2cc3[n+](cc12)CCc1cc2c(cc1-3)OCO2 [compound AB35511]	–
340 nM	960 nM	2560 nM	COc1ccc2cc3[n+](cc2c1OCc1ccc(-c2ccccc2)cc1)CCc1cc2c(cc1-3)OCO2 [compound AB35532]	–
680 nM	1540 nM	3150 nM	COc1ccc2cc3[n+](cc2c1OCCBr)CCc1cc2c(cc1-3)OCO2 [compound AB35595]	–
1170 nM	2580 nM	4690 nM	CCOc1c(OC)ccc2cc3[n+](cc12)CCc1cc2c(cc1-3)OCO2 [compound AB36412]	–
1840 nM	3850 nM	8320 nM	COc1ccc2cc3[n+](cc2c1OCCF)CCc1cc2c(cc1-3)OCO2 [compound AB36484]	–
560 nM	1340 nM	2820 nM	[2H]C([2H])([2H])Oc1c(OC)ccc2cc3[n+](c(C4CCCC4)c12)CCc1cc2c(cc1-3)OCO2.[Br-] [compound AB36508]	–

SMILES	IC50 [12, 17]	IC50 [13]	IC50 [14]	other results
COc1ccc2cc3[n+](cc2c1OCCCCl)CCc1cc2c(cc1-3)OCO2 [compound AB35483]	–	2880 nM	5320 nM	IC50 [12, 18]: 1260 nM
COc1ccc2cc3[n+](cc2c1OCCCl)CCc1cc2c(cc1-3)OCO2 [compound AB36404]	–	2540 nM	4860 nM	IC50 [12, 18]: 1060 nM
COc1c(OCCCCl)ccc2cc3[n+](cc12)CCc1cc2c(cc1-3)OCO2 [compound AB36425]	–	1920 nM	3880 nM	IC50 [12, 18]: 850 nM
